In PMC10008561 (Nature Communications, 2023):
Where “and” joins values, the source holds several entries; their conditions need not be identical. Equal entries are not always repeated. Where two headings read alike, the source gives them in different places.

Columns and labels:
Experiment in all cases: cell-based
human KOR (β-arrestin 1) [1] = target: T1, human KOR (β-arrestin 1) (Homo sapiens, UniProt P41145, L253A); settings: HEK-293T
T1 construct: expressed in transfected cells; host or cells: HEK293T

human KOR (β-arrestin 1) [2] = target: T2, human KOR (β-arrestin 1) (Homo sapiens, UniProt P41145, N322A); settings: HEK-293T
T2 construct: expressed in transfected cells; host or cells: HEK293T

human KOR (β-arrestin 1) [3] = target: T3, human KOR (β-arrestin 1) (Homo sapiens, UniProt P41145, D105A); settings: HEK-293T
T3 construct: expressed in transfected cells; host or cells: HEK293T

human KOR (β-arrestin 1) [4] = target: T4, human KOR (β-arrestin 1) (Homo sapiens, UniProt P41145, Y320L); settings: HEK-293T
T4 construct: expressed in transfected cells; host or cells: HEK293T

human KOR (β-arrestin 1) [5] = target: T5, human KOR (β-arrestin 1) (Homo sapiens, UniProt P41145, F114L); settings: HEK-293T
T5 construct: expressed in transfected cells; host or cells: HEK293T

human KOR (β-arrestin 1) [6] = target: T6, human KOR (β-arrestin 1) (Homo sapiens, UniProt P41145, D334A); settings: HEK-293T
T6 construct: expressed in transfected cells; host or cells: HEK293T

human KOR (β-arrestin 1) [7] = target: T7, human KOR (β-arrestin 1) (Homo sapiens, UniProt P41145, Y139L); settings: HEK-293T
T7 construct: expressed in transfected cells; host or cells: HEK293T

human KOR (β-arrestin 1) [8] = target: T8, human KOR (β-arrestin 1) (Homo sapiens, UniProt P41145, K200A); settings: HEK-293T
T8 construct: expressed in transfected cells; host or cells: HEK293T

human KOR (β-arrestin 1) [9] = target: T9, human KOR (β-arrestin 1) (Homo sapiens, UniProt P41145, D155A); settings: HEK-293T
T9 construct: expressed in transfected cells; host or cells: HEK293T

human KOR (β-arrestin 1) [10] = target: T10, human KOR (β-arrestin 1) (Homo sapiens, UniProt P41145, N141A); settings: HEK-293T
T10 construct: expressed in transfected cells; host or cells: HEK293T

human KOR (β-arrestin 1) [11] = target: T11, human KOR (β-arrestin 1) (Homo sapiens, UniProt P41145, Q115N); settings: HEK-293T
T11 construct: expressed in transfected cells; host or cells: HEK293T

human KOR (β-arrestin 1) [12] = target: T12, human KOR (β-arrestin 1) (Homo sapiens, UniProt P41145, F283A); settings: HEK-293T
T12 construct: expressed in transfected cells; host or cells: HEK293T

human KOR (β-arrestin 1) [13] = target: T13, human KOR (β-arrestin 1) (Homo sapiens, UniProt P41145)
T13 construct: expressed in transfected cells; host or cells: HEK293T

human KOR (β-arrestin 1) [14] = target: T14, human KOR (β-arrestin 1) (Homo sapiens, UniProt P41145, N326A); settings: HEK-293T
T14 construct: expressed in transfected cells; host or cells: HEK293T

human KOR (β-arrestin 1) [15] = target: T15, human KOR (β-arrestin 1) (Homo sapiens, UniProt P41145, G319L); settings: HEK-293T
T15 construct: expressed in transfected cells; host or cells: HEK293T

human KOR (Gustducin) [16] = target: T16, human KOR (Gustducin) (Homo sapiens, UniProt P41145, K227A); settings: HEK-293T
T16 construct: expressed in transfected cells; host or cells: HEK293T

human KOR (Gustducin) [17] = target: T17, human KOR (Gustducin) (Homo sapiens, UniProt P41145, R170A); settings: HEK-293T
T17 construct: expressed in transfected cells; host or cells: HEK293T

human KOR (Gustducin) [18] = target: T18, human KOR (Gustducin) (Homo sapiens, UniProt P41145, T94V); settings: HEK-293T
T18 construct: expressed in transfected cells; host or cells: HEK293T

human KOR (Gustducin) [19] = target: T19, human KOR (Gustducin) (Homo sapiens, UniProt P41145, R257A); settings: HEK-293T
T19 construct: expressed in transfected cells; host or cells: HEK293T

human KOR (Gustducin) [20] = target: T20, human KOR (Gustducin) (Homo sapiens, UniProt P41145, Y139L); settings: HEK-293T
T20 construct: expressed in transfected cells; host or cells: HEK293T

human KOR (Gustducin) [21] = target: T21, human KOR (Gustducin) (Homo sapiens, UniProt P41145, N322A); settings: HEK-293T
T21 construct: expressed in transfected cells; host or cells: HEK293T

human KOR (Gustducin) [22] = target: T22, human KOR (Gustducin) (Homo sapiens, UniProt P41145, D155A); settings: HEK-293T
T22 construct: expressed in transfected cells; host or cells: HEK293T

human KOR (Gustducin) [23] = target: T23, human KOR (Gustducin) (Homo sapiens, UniProt P41145, Y320L); settings: HEK-293T
T23 construct: expressed in transfected cells; host or cells: HEK293T

human KOR (Gustducin) [24] = target: T24, human KOR (Gustducin) (Homo sapiens, UniProt P41145, F283A); settings: HEK-293T
T24 construct: expressed in transfected cells; host or cells: HEK293T

human KOR (Gustducin) [25] = target: T25, human KOR (Gustducin) (Homo sapiens, UniProt P41145, F114L); settings: HEK-293T
T25 construct: expressed in transfected cells; host or cells: HEK293T

human KOR (Gustducin) [26] = target: T26, human KOR (Gustducin) (Homo sapiens, UniProt P41145, G319L); settings: HEK-293T
T26 construct: expressed in transfected cells; host or cells: HEK293T

human KOR (Gustducin) [27] = target: T27, human KOR (Gustducin) (Homo sapiens, UniProt P41145, R271A); settings: HEK-293T
T27 construct: expressed in transfected cells; host or cells: HEK293T

human KOR (Gustducin) [28] = target: T28, human KOR (Gustducin) (Homo sapiens, UniProt P41145, R274A); settings: HEK-293T
T28 construct: expressed in transfected cells; host or cells: HEK293T

human KOR (Gustducin) [29] = target: T29, human KOR (Gustducin) (Homo sapiens, UniProt P41145, N326A); settings: HEK-293T
T29 construct: expressed in transfected cells; host or cells: HEK293T

human KOR (Gustducin) [30] = target: T30, human KOR (Gustducin) (Homo sapiens, UniProt P41145, D266A); settings: HEK-293T
T30 construct: expressed in transfected cells; host or cells: HEK293T

human KOR = human KOR (Homo sapiens, UniProt P41145); parameters: expressed in transfected cells; host or cells: HEK 293T (ATCC, CRL-3216); settings: HEK-293T
[31] = HEK-293T, read-out: βArrestin1 (Figure 5A concentration-response, replicate values)
[32] = read-out: KOR WT_Gi response (Figure S4D)
[33] = read-out: cAMP response (Figure S4C)

T13 sequence (P41145 whole entry): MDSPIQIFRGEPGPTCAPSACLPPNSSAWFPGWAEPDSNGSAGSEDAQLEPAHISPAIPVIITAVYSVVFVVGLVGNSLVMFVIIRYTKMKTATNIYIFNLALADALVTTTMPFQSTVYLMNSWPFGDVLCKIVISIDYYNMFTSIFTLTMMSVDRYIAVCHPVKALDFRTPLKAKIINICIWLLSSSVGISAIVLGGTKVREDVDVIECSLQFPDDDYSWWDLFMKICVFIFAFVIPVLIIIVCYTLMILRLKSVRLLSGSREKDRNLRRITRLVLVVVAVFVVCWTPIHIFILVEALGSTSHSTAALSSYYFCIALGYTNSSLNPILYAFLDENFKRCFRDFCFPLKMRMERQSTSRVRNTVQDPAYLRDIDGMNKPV
Chain of human KOR (P41145 whole entry): as above
T30 sequence (P41145 whole entry D266A): as the sequence (P41145 whole entry) above, with D266A counted along it
T26 sequence (P41145 whole entry G319L): as the sequence (P41145 whole entry) above, with G319L counted along it
T15 sequence (P41145 whole entry G319L): as the sequence (P41145 whole entry) above, with G319L counted along it
T21 sequence (P41145 whole entry N322A): as the sequence (P41145 whole entry) above, with N322A counted along it
T2 sequence (P41145 whole entry N322A): as the sequence (P41145 whole entry) above, with N322A counted along it
T11 sequence (P41145 whole entry Q115N): as the sequence (P41145 whole entry) above, with Q115N counted along it
T25 sequence (P41145 whole entry F114L): as the sequence (P41145 whole entry) above, with F114L counted along it
T5 sequence (P41145 whole entry F114L): as the sequence (P41145 whole entry) above, with F114L counted along it
T6 sequence (P41145 whole entry D334A): as the sequence (P41145 whole entry) above, with D334A counted along it
T17 sequence (P41145 whole entry R170A): as the sequence (P41145 whole entry) above, with R170A counted along it
T8 sequence (P41145 whole entry K200A): as the sequence (P41145 whole entry) above, with K200A counted along it
T10 sequence (P41145 whole entry N141A): as the sequence (P41145 whole entry) above, with N141A counted along it
T28 sequence (P41145 whole entry R274A): as the sequence (P41145 whole entry) above, with R274A counted along it
T14 sequence (P41145 whole entry N326A): as the sequence (P41145 whole entry) above, with N326A counted along it
T29 sequence (P41145 whole entry N326A): as the sequence (P41145 whole entry) above, with N326A counted along it
T16 sequence (P41145 whole entry K227A): as the sequence (P41145 whole entry) above, with K227A counted along it
T27 sequence (P41145 whole entry R271A): as the sequence (P41145 whole entry) above, with R271A counted along it
T19 sequence (P41145 whole entry R257A): as the sequence (P41145 whole entry) above, with R257A counted along it
T1 sequence (P41145 whole entry L253A): as the sequence (P41145 whole entry) above, with L253A counted along it
T22 sequence (P41145 whole entry D155A): as the sequence (P41145 whole entry) above, with D155A counted along it
T9 sequence (P41145 whole entry D155A): as the sequence (P41145 whole entry) above, with D155A counted along it
T24 sequence (P41145 whole entry F283A): as the sequence (P41145 whole entry) above, with F283A counted along it
T12 sequence (P41145 whole entry F283A): as the sequence (P41145 whole entry) above, with F283A counted along it
T7 sequence (P41145 whole entry Y139L): as the sequence (P41145 whole entry) above, with Y139L counted along it
T20 sequence (P41145 whole entry Y139L): as the sequence (P41145 whole entry) above, with Y139L counted along it
T18 sequence (P41145 whole entry T94V): as the sequence (P41145 whole entry) above, with T94V counted along it
T3 sequence (P41145 whole entry D105A): as the sequence (P41145 whole entry) above, with D105A counted along it
T4 sequence (P41145 whole entry Y320L): as the sequence (P41145 whole entry) above, with Y320L counted along it
T23 sequence (P41145 whole entry Y320L): as the sequence (P41145 whole entry) above, with Y320L counted along it

In the case of CN(C(=O)/C=C/c1ccoc1)[C@@H]1CC[C@@]2(O)[C@H]3Cc4ccc(O)c5c4[C@@]2(CCN3CC2CC2)[C@H]1O5 [Nalfurafine, nalfurafine], the Emax (human KOR (β-arrestin 1) [1]) is reported as 94.5%, the Emax (human KOR (β-arrestin 1) [2]) is reported as 101% and the Emax (human KOR (β-arrestin 1) [3]) is reported as 91.6%. The Emax (human KOR (β-arrestin 1) [4]) was 83.6%, the Emax (human KOR (β-arrestin 1) [5]) was 33.9% and the Emax (human KOR (β-arrestin 1) [6]) was 71.1%. It also gave an Emax (human KOR (β-arrestin 1) [7]) of 92.8%, an Emax (human KOR (β-arrestin 1) [8]) of 81.3% and an Emax (human KOR (β-arrestin 1) [9]) of 86.5%. The Emax (human KOR (β-arrestin 1) [10]) was 91.3%, the Emax (human KOR (β-arrestin 1) [11]) was 62.2% and the Emax (human KOR (β-arrestin 1) [12]) was 100%. For the same molecule, the Emax% (human KOR (β-arrestin 1) [13]) was 52.03% and 50%, the Emax (human KOR (β-arrestin 1) [13]; HEK-293T) was 52.1% and the activation at 0.01 µM (human KOR (β-arrestin 1) [13]; [31]) was 47.1%. The activation at 0.1 µM (human KOR (β-arrestin 1) [13]; [31]) was 49.9%, the activation at 1 µM (human KOR (β-arrestin 1) [13]; [31]) was 52.7% and the Emax (human KOR (β-arrestin 1) [14]) was 65.2%. The Emax (human KOR (β-arrestin 1) [15]) was 60.4%, the Emax (human KOR (Gustducin) [16]) was 85.5% and the Emax (human KOR (Gustducin) [17]) was 77.5%. It also gave an Emax (human KOR (Gustducin) [18]) of 73.6%, an Emax (human KOR (Gustducin) [19]) of 53.8% and an Emax (human KOR (Gustducin) [20]) of 55.3%. It also gave an Emax (human KOR (Gustducin) [21]) of 96.6%, an Emax (human KOR (Gustducin) [22]) of 91.8% and an Emax (human KOR (Gustducin) [23]) of 80%. The Emax (human KOR (Gustducin) [24]) was 100%, the Emax (human KOR (Gustducin) [25]) was 60.6% and the Emax (human KOR (Gustducin) [26]) was 80.9%. For the same molecule, the Emax (human KOR (Gustducin) [27]) was 56.9%, the Emax (human KOR (Gustducin) [28]) was 82% and the Emax (human KOR (Gustducin) [29]) was 49.2%. The Emax (human KOR (Gustducin) [30]) was 62.6%, the Emax (human KOR) was 100 ± 2% and the activation at 1 pM (human KOR; [32]) was 34.6%. For the same molecule, the activation at 3.162 pM (human KOR; [32]) was 50.4%, the activation at 10 pM (human KOR; [32]) was 75.7% and the activation at 31.62 pM (human KOR; [32]) was 89.3%. The activation at 0.0001 µM (human KOR; [32]) was 97.6%, the activation at 0.001 µM (human KOR; [32]) was 96.5% and the activation at 0.1 µM (human KOR; [32]) was 103%. For the same molecule, the activation at 1 µM (human KOR; [32]) was 100%, the activation at […] (human KOR; [32]) was 94.1% and 99.5% and 96.9% and the activation at 1 pM (human KOR; read-out: cAMP response) was 42.4%. For the same molecule, the activation at 3.162 pM (human KOR; read-out: cAMP response) was 56.3%, the activation at 10 pM (human KOR; read-out: cAMP response) was 78.7% and the activation at 31.62 pM (human KOR; read-out: cAMP response) was 90.8%. It also gave an activation at 0.0001 µM (human KOR; read-out: cAMP response) of 98.1%, an activation at 0.001 µM (human KOR; read-out: cAMP response) of 97.1% and an activation at 0.1 µM (human KOR; read-out: cAMP response) of 103%. The activation at 1 µM (human KOR; read-out: cAMP response) was 101%, the activation at […] (human KOR; read-out: cAMP response) was 95% (2×) and 99.8% and 97.5% and the activation at 1 pM (human KOR; [33]) was 34.6%. It also gave an activation at 3.162 pM (human KOR; [33]) of 50.4%, an activation at 10 pM (human KOR; [33]) of 75.7% and an activation at 31.62 pM (human KOR; [33]) of 89.3%. For the same molecule, the activation at 0.0001 µM (human KOR; [33]) was 97.6%, the activation at 0.001 µM (human KOR; [33]) was 96.5% and the activation at 0.1 µM (human KOR; [33]) was 103%. For the same molecule, the activation at 1 µM (human KOR; [33]) was 100% and the activation at […] (human KOR; [33]) was 94.1% and 99.5% and 96.9%.
